In US6207656A, “Vitamin D analogues and their neuronal effects” (Cephalon, Inc., priority 1998, dated 2001):
Entries after “also recorded” stand apart in the source; their conditions may differ.

How the values were obtained:
[1] = Calcemic activity in rats, serum calcium after 7 days oral gavage; format: in vivo, LEW/MOL female rats; conditions: for Calcium in Serum: Table 2A (vehicle 2.46 ± 0.06), ± S.D.
Description: For determining calcemic activity, LEW/MOL female rats (130-170 g) were administered test compounds daily for 7 days by oral gavage. Control rats received the vehicle. Each group consisted of 3 rats. Blood was collected by cardiac puncture on day 7.

[2] = target: T1, vitamin D receptor (Gallus gallus, UniProt O42392); assay: Vitamin D receptor binding (displacement of 3H-1α,25(OH)2D3)
T1 sequence (O42392 1-451): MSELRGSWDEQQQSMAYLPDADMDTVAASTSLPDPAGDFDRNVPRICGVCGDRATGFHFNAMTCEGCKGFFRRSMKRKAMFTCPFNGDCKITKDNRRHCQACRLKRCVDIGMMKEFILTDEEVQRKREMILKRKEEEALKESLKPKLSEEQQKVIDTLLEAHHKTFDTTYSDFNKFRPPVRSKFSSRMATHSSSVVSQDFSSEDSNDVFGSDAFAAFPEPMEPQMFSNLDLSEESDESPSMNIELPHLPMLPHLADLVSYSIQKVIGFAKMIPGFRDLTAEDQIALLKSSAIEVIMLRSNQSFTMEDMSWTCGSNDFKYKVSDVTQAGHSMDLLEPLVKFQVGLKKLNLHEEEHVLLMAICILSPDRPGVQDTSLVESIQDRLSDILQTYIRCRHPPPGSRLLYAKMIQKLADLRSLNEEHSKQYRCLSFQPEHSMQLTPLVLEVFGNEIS
Description: Bound and free ^3 H-1α,25(OH2)D3 were then separated on dextran-coated charcoal, samples were centrifuged and the supernatants containing the receptor-bound ^3 H-1α,25(OH2)D3 were counted in a liquid scintillation counter.

[3] = test system: NGF mRNA; assay: Induction of NGF mRNA expression in rats; format: in vivo, Sprague Dawley rats; conditions: 8 days (FIG. 1)
Description: Five hours after the last dose, the animals were sacrificed by decapitation. Each brain was quickly removed and chilled in ice-cold saline. The brain was cut into 2 mm thick coronal sections. Portions of the hippocampus, encompassing the CA1 region, and the medial septum were removed by punching 2 mm^3 sections using a calibrated tissue punch. Punched sections were immediately frozen on dry ice and then stored at -70° C. RNA was prepared from dissected tissue pieces.
Punches of tissue were homogenized in […] RNAzolB™ (Bioteex Laboratories, Houston, Tex.) using a homogenizer (Tekmar, Germany) until fully homogenized and then 250 μl RNAzilB™ was added. Typically, punches from the corresponding regions of brains of 2 to 3 animals were combined together. RNA was prepared as recommended by the manufacturer (Biotecx Laboratories). Following isopropanol precipitation, RNA was reprecipitated with ethanol and finally resuspended in 25-50 μL of water. Concentration of RNA was measured spectrophotometrically and the quality of RNA was visualized on a nondenaturing agarose gel. Equal amounts of RNA, usually 1-2 μg, were reverse transcribed using Superscript II™ (Gibco BRL), as recommended by the manufacturer. The assay was terminated by incubation at 95° C. 1 min. at 55-60° C. (depending on the primer set) and 2 min. at 72° C. […] After the assay, samples were electrophoresed on 5% nondenaturing acrylamide gels. Gels were dried and the resulting labeled bands were visualized on a phosphorimager (Storm 840, Molecular Dynamics, Sunnyvale, Calif.). The following primers were used: […]
Nerve Growth Factor (NGF). Primers were designed against the rat sequence.

[4] = test system: NRT-like mRNA; assay: Induction of NRT-like mRNA expression in rats; format: in vivo, Sprague Dawley rats; conditions: 0.3, 1.0 and 3.0 μg/kg oral, 8 days; septum (FIG. 1)
Description: Young adult male Sprague Dawley rats (250-350 g) were administered Compound (A), Compound (E), or a vehicle (80% propylene glycol (human formulation grade; Spectrum Quality Products, Inc., Gardena, Calif., catalog #PR130-55003) and 20% phosphate buffer, pH 9.2) at doses ranging from 0.1 to 5.5 μg/kg daily by oral gavage for eight days. Five hours after the last dose, the animals were sacrificed by decapitation. Each brain was quickly removed and chilled in ice-cold saline. The brain was cut into 2 mm thick coronal sections. Portions of the hippocampus, encompassing the CA1 region, and the medial septum were removed by punching 2 mm^3 sections using a calibrated tissue punch. Punched sections were immediately frozen on dry ice and then stored at -70° C. RNA was prepared from dissected tissue pieces.
Punches of tissue were homogenized in […] RNAzolB™ (Bioteex Laboratories, Houston, Tex.) using a homogenizer (Tekmar, Germany) until fully homogenized and then 250 μl RNAzilB™ was added. Typically, punches from the corresponding regions of brains of 2 to 3 animals were combined together. RNA was prepared as recommended by the manufacturer (Biotecx Laboratories). […] Concentration of RNA was measured spectrophotometrically and the quality of RNA was visualized on a nondenaturing agarose gel. […]

[5] = test system: acrylamide-induced peripheral neuropathy in rats; assay: Acrylamide-induced peripheral neuropathy, landing foot spread; format: in vivo, rat
Description: Peripheral neuropathy was induced in rats by the administration of the neurotoxin acrylamide, 50 mg/kg, IP, 3×/week. The acrylamide treatment occurred during the first three weeks of the experiment. After acrylamide was discontinued, the animals were allowed to recover for an additional 3-5 weeks. The ability of Compound (A) or Compound (B) to either slow the onset of peripheral neuropathy, reduce the severity of the peripheral neuropathy or enhance the recovery from peripheral neuropathy was determined. The compounds were administered either orally (Compound (A)) or via subcutaneous Alzet mini-pumps (I month model)(Compounds (A) and (B)) beginning 3 days prior to the first dose of acrylamide. Compound (A) was administered orally at doses of 0.3, 1.0 and 3.0 μg/kg/day and by mini-pump at doses of 10, 55, 100, 330 and 550 ng/day. Compound (B) was administered by mini-pump at doses of 10, 33, 100, 330 and 1000 ng/day. These dose ranges were selected to limit toxicity and to bracket the dose range used in fimbria fornix lesion experiments. The mini-pumps were replaced at the end of the fourth week so that the test compound was on board for the duration of the experiment. In FIG. 11B, the data from FIG. 11A was averaged.

## C=C1/C(=C\C=C2/CCC[C@]3(C)[C@@H]([C@@H](C)[C@@H](C#CCC(O)(CC)CC)OCC)CC[C@@H]23)C[C@@H](O)C[C@@H]1O [Compound (A), 1(S),3(R)-dihydroxy-20(R)-(1-ethoxy-5-ethyl-5-hydroxy-2-heptyn-1-yl)-9,10-seco-pregna-5(Z),7(E),10(19)-triene]
[1]; 0.1 μg/kg/day p.o.
  Calcium in Serum: 2.52 ± 0.02 mmol/L
[1]; 1.0 μg/kg/day p.o.
  Calcium in Serum: 2.62 ± 0.02 mmol/L
[1]; 10 μg/kg/day p.o., Table 2A
  Calcium in Serum column: toxicity: toxic
[1]; rat, in vivo, po
  Calcemic Activity (%): 24%
[1]; summary statement
  calcemic classification: exemplary of low calcemic vitamin D3 analogues
[2]
  Kd: 0.2 nM
[3]; 0.3 μg/kg oral
  production of NGF mRNA: did not facilitate the production of NGF mRNA
[3]; 1.0 and 3.0 μg/kg oral
  production of NGF mRNA: facilitated the production of NGF mRNA
[4]
  production of NRT-like mRNA: facilitated the production of NRT-like mRNA
[5]; continuously pumped (mini-pump)
  development of peripheral neuropathy: did not prevent the development of the acrylamide-induced peripheral neuropathy
[5]; mini-pump
  recovery from peripheral neuropathy: improved recovery; also recorded: an effect upon the recovery from the lesion was apparent
[5]; mini-pump, recovery period
  landing foot spread: effective in reducing landing foot spread, but only during the recovery period; also recorded: decreased landing foot spread during the recovery period
[5]; oral
  development of peripheral neuropathy: prevented the development of acrylamide-induced peripheral neuropathy
  severity of neuropathy and functional recovery: dose-dependent effects on both the severity of the acrylamide-induced peripheral neuropathy as well as the ability of the animals to functionally recover from the lesion
[5]; oral 3.0 μg/kg/day
  landing foot spread: statistically significant decrease in landing foot spread
[5]; oral 3.0 μg/kg/day, onset days 1-24, recovery days 24-42
  time course of decrease in landing foot spread: occurred during the onset of the lesion (days 1-24) and were sustained through the recovery phase
[5]; oral, FIGS. 11A-11C legend
  landing foot spread: decreases landing foot spread
